From article PMC8386128, “Evaluation of Short-Chain Antimicrobial Peptides With Combined Antimicrobial and Anti-inflammatory Bioactivities for the Treatment of Zoonotic Skin Pathogens From Canines” (Frontiers in Microbiology, 2021)
Structures can show the parent of a compound that is named as a salt. Where two headings read alike, the source gives them in different places. No end group written: not given here.

Legend:
[1] = system: S. pseudintermedius MW767056; assay: Bacteriolysis analysis (culture turbidity at 600 nm); assay type: cell-based, Staphylococcus pseudintermedius; settings: 4× MIC
[2] = system: S. pseudintermedius MW767056; assay: Calcein leakage analysis (membrane permeabilization); assay type: cell-based, Staphylococcus pseudintermedius; settings: 10× MIC, up to 1 h, triplicate, two independent experiments
[3] = system: Proteus mirabilis MW767054; settings: MW767054, 24 h
[4] = system: Microsporum gypseum MW766983; settings: 24 h
[5] = system: Staphylococcus simulans MW767052
[6] = system: Trichophyton mentagrophytes MW766984; settings: 24 h
[7] = system: S. pseudintermedius MW767056 biofilm; settings: for MBIC: 24 h; for MBEC: 48 h
[8] = system: Staphylococcus cohnii MW767053
[9] = system: Staphylococcus haemolyticus MW767051
[10] = system: M. canis MW768151 biofilm; settings: for MBIC: 24 h; for MBEC: 48 h
[11] = system: S. cohnii MW767053 biofilm; settings: for MBIC: 24 h; for MBEC: 48 h
[12] = system: Staphylococcus sciuri MW767055
[13] = system: Staphylococcus pseudintermedius clinical isolates; settings: triplicate; for MBC/MFC: 10 μl plated on MH plate, no colonies; for MIC: broth microdilution, MHB, 1 × 10^5 CFU/ml, 24 h, 37°C
[14] = system: S. cohnii MW767053; settings: peptide incubated in 25% FBS in RPMI-1640, 37°C, 4 h, then MIC at 1 × 10^5 CFU/ml; three replicates, two independent experiments
[15] = system: Staphylococcus pseudintermedius MW767056; settings: peptide constant at 1/4 × MIC, 1 × 10^5 CFU/ml, triplicate
[16] = system: sheep and mouse erythrocytes; assay: Hemolysis assay; settings: 4% erythrocyte suspension, 2 h, 37°C, absorption at 550 nm, triplicate
Method: The hemolysis assay was carried out by inoculating mammalian erythrocytes obtained from fresh defibrinated sheep and mouse blood (Thermo Fisher Scientific, Waltham, MA, United States) with the peptides. Briefly, peptides were incubated at 37°C with a 4% erythrocyte suspension with a twofold serial dilution series of peptides ranging from 512 to 1 μg/ml for 2 h. PBS and 1% nonionic detergent Triton X-100^TM (Sigma-Aldrich, St. Louis, MO, United States) diluted in PBS served as negative and positive controls, respectively. Cytolysis was evaluated by the measurement of absorption using a microplate reader at 550 nm. Experiments were done in triplicate. The hemolysis is derived from the following calculation:
Haemolysis%=A-APBS/ATriton-APBS×100%.
A represents the absorbance of samples treated with peptide, while APBS and ATriton indicate the absorbance of the negative and positive controls, respectively.

[17] = system: S. pseudintermedius MW767056; settings: three replicates, two independent experiments
[18] = system: Staphylococcus cohnii MW767053; settings: peptide constant at 1/4 × MIC, 1 × 10^5 CFU/ml, triplicate
[19] = system: TNF-α; assay: Western blotting of TNF-α in infected mouse skin; assay type: in vivo, BALB/c mice; settings: day 1, vs saline-treated group, normalized to β-actin, n = 3
Method: To examine the expression of IL-6 and TNF-α at the protein level, immunoblotting was performed as reported previously ([Tang et al., 2017]). Proteins from dorsal skin tissues were extracted for Western blotting assays. Primary antibodies included anti-IL-6 (1:1,000, Abcam, Waltham, MA, United States) and anti-TNF-α (1:1,000, Abcam, United States). To verify equal sample loading, the membrane was incubated with rabbit polyclonal anti-β-actin antibody (1:1,000, Abcam, United States) as an internal control. Horseradish peroxidase-conjugated goat anti-rabbit IgG (1:5000, Abcam, United States) was used as the secondary antibody. The membranes were exposed under a chemiluminescent imaging analysis system (GE Healthcare Life Science, Danderyd, Sweden). Samples not treated with primary antibodies were considered negative controls. Relative levels of each protein were normalized to those of β-actin in each sample.

[20] = system: S. pseudintermedius MW767056 skin infection; assay: Mouse skin infection (abrasion) model; settings: topical 50 μl at 6× MIC daily, n = 5; for bacterial counts of infected skin tissue: inoculum 5 × 10^6 CFU, mean
[21] = system: Microsporum canis MW768151; settings: peptide constant at 1/4 × MIC, 1 × 10^5 CFU/ml, triplicate
[22] = in combination with Allomyrinasin

## ITSISLCTPGCKTGALMGCNMKTATCHCSIHVSK [Nisin, well-known membrane-perturbing peptide, positive control]
[1]; after 2.5 h, MHB, triplicate
  decrease in absorbance (turbidity, OD600): > 60%
[2]
  calcein leakage (decrease in fluorescence intensity): at least 95%

## GLLSGILGAGKKIVF [Nigrocin-HLM]
[3]
  MBC/MFC: 64 µg/mL
[4]
  MBC/MFC: 1 µg/mL

## VAEARQGSFSY [Pinipesin]
[3]
  MBC/MFC: >256 µg/mL
  MIC: >256 µg/mL
[4]
  MBC/MFC: 2 µg/mL
  MIC: 2 µg/mL
[5]; 24 h
  MBC/MFC: 128 µg/mL
  MIC: 128 µg/mL
[6]
  MBC/MFC: 0.5 µg/mL
  MIC: 0.5 µg/mL
[7]
  MBIC: >256 µg/mL
  MBEC: >256 µg/mL
[8]; 24 h
  MBC/MFC: >256 µg/mL
  MIC: >256 µg/mL
[9]; 24 h
  MBC/MFC: >256 µg/mL
  MIC: >256 µg/mL
[10]
  MBIC: 4 µg/mL
  MBEC: 16 µg/mL
[11]
  MBIC: >256 µg/mL
  MBEC: >256 µg/mL
[12]; 24 h
  MBC/MFC: >256 µg/mL
  MIC: >256 µg/mL

## AAVTRRILCWFA-NH2 [Allomyrinasin]
[3]
  MBC/MFC: >256 µg/mL
  MIC: >256 µg/mL
[4]
  MBC/MFC: 0.5 µg/mL
  MIC: 0.5 µg/mL
[5]; 24 h
  MBC/MFC: 128 µg/mL
  MIC: 128 µg/mL
[6]
  MBC/MFC: 2 µg/mL
  MIC: 2 µg/mL
[7]
  MBIC: 32 µg/mL
  MBEC: 128 µg/mL
[8]; 24 h
  MBC/MFC: 32 µg/mL
  MIC: 32 µg/mL
[9]; 24 h
  MBC/MFC: >256 µg/mL
  MIC: >256 µg/mL
[10]
  MBIC: 2 µg/mL
  MBEC: 8 µg/mL
[11]
  MBIC: 128 µg/mL
  MBEC: 256 µg/mL
[12]; 24 h
  MBC/MFC: >256 µg/mL
  MIC: >256 µg/mL

## GLTRLFSVIK [Andricin B]
[13]; strain MW767046
  MBC/MFC: 32 µg/mL
  MIC: 32 µg/mL
[13]; strain MW767056
  MBC/MFC: 32 µg/mL
  MIC: 32 µg/mL
[13]; strain MW793383
  MBC/MFC: 32 µg/mL
  MIC: 32 µg/mL
[13]; strain MW793384
  MBC/MFC: 128 µg/mL
  MIC: 128 µg/mL
[13]; strain MW793385
  MBC/MFC: 64 µg/mL
  MIC: 64 µg/mL
[13]; strain MW793386
  MBC/MFC: 64 µg/mL
  MIC: 64 µg/mL
[13]; strain MW793387
  MBC/MFC: 128 µg/mL
  MIC: 128 µg/mL
[13]; strain MW793388
  MBC/MFC: 64 µg/mL
  MIC: 64 µg/mL
[13]; strain MW793389
  MBC/MFC: 128 µg/mL
  MIC: 128 µg/mL
[13]; strain MW793390
  MBC/MFC: 128 µg/mL
  MIC: 128 µg/mL
[13]; strain MW793391
  MBC/MFC: 32 µg/mL
  MIC: 32 µg/mL
[13]; strain MW793392
  MBC/MFC: 64 µg/mL
  MIC: 64 µg/mL
[14]
  MIC after serum treatment: 256 µg/mL
[3]
  MBC/MFC: >256 µg/mL
  MIC: >256 µg/mL
[15]; [22]
  FIC index: 0.3125
[4]
  MBC/MFC: 2 µg/mL
  MIC: 2 µg/mL
[16]; 1 to 64 μg/ml
  hemolytic activity at lower concentrations: little or no obvious hemolytic activity
[16]; >64 μg/ml
  hemolytic activity at high concentrations: slight hemolytic activity
[5]; strain MW767052, MBC, 10 μl plated on MH plate, no colonies, triplicate
  MBC/MFC: 256 µg/mL
[5]; strain MW767052, broth microdilution, MHB, 1 × 10^5 CFU/ml, 24 h, 37°C, triplicate
  MIC: 256 µg/mL
[6]
  MBC/MFC: 1 µg/mL
  MIC: 1 µg/mL
[7]
  MBIC: 128 µg/mL
  MBEC: 256 µg/mL
[8]; strain MW767053, MBC, 10 μl plated on MH plate, no colonies, triplicate
  MBC/MFC: 64 µg/mL
[9]; strain MW767051, MBC, 10 μl plated on MH plate, no colonies, triplicate
  MBC/MFC: >256 µg/mL
[9]; strain MW767051, broth microdilution, MHB, 1 × 10^5 CFU/ml, 24 h, 37°C, triplicate
  MIC: >256 µg/mL
[17]; 1 × 10^5 CFU/ml
  MIC without serum treatment: 32 µg/mL
[17]; peptide incubated in 25% FBS in RPMI-1640, 37°C, 4 h, then MIC at 1 × 10^5 CFU/ml
  MIC after serum treatment: 64 µg/mL
[10]
  MBIC: 4 µg/mL
  MBEC: 16 µg/mL
[11]
  MBIC: 256 µg/mL
  MBEC: >256 µg/mL
[12]; strain MW767055, MBC, 10 μl plated on MH plate, no colonies, triplicate
  MBC/MFC: >256 µg/mL
[12]; strain MW767055, broth microdilution, MHB, 1 × 10^5 CFU/ml, 24 h, 37°C, triplicate
  MIC: >256 µg/mL
[18]; [22]
  FIC index: 0.50

## KWAVRIIRKFIKGFIS [Hs02]
[3]
  MBC/MFC: 128 µg/mL
  MIC: 128 µg/mL
[4]
  MBC/MFC: 0.5 µg/mL
  MIC: 0.5 µg/mL
[5]; 24 h
  MBC/MFC: 64 µg/mL
  MIC: 64 µg/mL
[6]
  MBC/MFC: 1 µg/mL
  MIC: 1 µg/mL
[8]; 24 h
  MBC/MFC: 32 µg/mL
  MIC: 32 µg/mL
[9]; 24 h
  MBC/MFC: 128 µg/mL
  MIC: 128 µg/mL
[12]; 24 h
  MBC/MFC: >256 µg/mL
  MIC: >256 µg/mL

## CC1(C)S[C@@H]2[C@H](NC(=O)[C@H](N)c3ccc(O)cc3)C(=O)N2[C@H]1C(=O)O [Amoxicillin, amoxicillin]
[15]; [22]
  FIC index: 0.281
[15]; in combination with Andricin B
  FIC index: indifferent interaction
[19]
  expression level of TNF-α protein in infected skin: decreased
[1]; result in words
  variation in culture turbidity (OD600) over 10 h: not recorded
[2]
  calcein leakage (decrease in fluorescence intensity): no obvious disruptive reaction
[20]; day 1
  bacterial counts of infected skin tissue: 5.94 log10 CFU/g
  bacterial load in the liver: No bacterial load was detected
[20]; day 3
  bacterial counts of infected skin tissue: 3.58 log10 CFU/g
  S. pseudintermedius infection in the liver: completely prevented
[18]; [22]
  FIC index: 0.3125
[18]; in combination with Andricin B
  FIC index: 0.50

## CN(C/C=C/C#CC(C)(C)C)Cc1cccc2ccccc12 [Terbinafine, terbinafine hydrochloride]
[21]; [22]
  FIC index: 0.375
[21]; in combination with Andricin B
  FIC index: 0.50
